# PubChem BioAssay (NCI)
#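 Interpolation was linear, between the two tested concentrations surrounding the appropriate level; five concentrations were tested over 48 hours in 96-well plates. At the GI50, growth is halved. TGI: total growth inhibition.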
# How the values were obtained:
# Test in all cases: NCI-60 cell line screen, 48 h
# [1] = tested on: HT29 colon
# [2] = tested on: SF-539 CNS
# [3] = tested on: NCI-H226 lung
# [4] = tested on: SF-268 CNS
# [5] = tested on: A498 renal
# [6] = tested on: T-47D breast
# [7] = tested on: HL-60(TB) leukemia
# [8] = tested on: MOLT-4 leukemia
# [9] = tested on: NCI-H23 lung
# [10] = tested on: OVCAR-4 ovarian
# [11] = tested on: MDA-MB-231 breast
# [12] = tested on: SNB-75 CNS
# [13] = tested on: SR leukemia
# [14] = tested on: EKVX NSCLC
# [15] = tested on: NCI-H522 lung
# [16] = tested on: MALME-3M melanoma
# [17] = tested on: SK-MEL-2 melanoma
# [18] = tested on: NCI-H460 lung
# [19] = tested on: HCT-116 colon
# [20] = tested on: DU-145 prostate
# [21] = tested on: HS 578T breast
# [22] = tested on: SN12C renal
# [23] = tested on: SNB-19 CNS
# [24] = tested on: UO-31 renal
# [25] = tested on: UACC-62 melanoma
# [26] = tested on: SK-OV-3 ovarian
# [27] = tested on: CAKI-1 renal
# [28] = tested on: MCF7 breast
# [29] = tested on: COLO 205 colon
# [30] = tested on: M14 melanoma
# [31] = tested on: UACC-257 melanoma
# [32] = tested on: PC-3 prostate
# [33] = tested on: ACHN renal
# [34] = tested on: BT-549 breast
# [35] = tested on: RPMI-8226 leukemia
# [36] = tested on: RXF 393 renal
# [37] = tested on: K-562 leukemia
# [38] = tested on: SF-295 CNS
# [39] = tested on: OVCAR-3 ovarian
# [40] = tested on: IGROV1 ovarian
# [41] = tested on: A549 NSCLC
# [42] = tested on: OVCAR-8 ovarian
# [43] = tested on: CCRF-CEM leukemia
# [44] = tested on: HCT-15 colon
# [45] = tested on: HOP-92 NSCLC
# [46] = tested on: NCI/ADR-RES ovarian
# [47] = tested on: U251 CNS
# [48] = tested on: HOP-62 NSCLC
# [49] = tested on: SW-620 colon
# [50] = tested on: MDA-MB-435
# [51] = tested on: SK-MEL-5 melanoma
# [52] = tested on: KM12 colon
# [53] = tested on: 786-0 renal
# [54] = tested on: OVCAR-5 ovarian
# [55] = tested on: HCC-2998 colon
# [56] = tested on: LOX IMVI melanoma
# [57] = tested on: TK-10 renal
smiles,measurement,setting,value
C#CC#CC#CC#CC#CC#CC#CC#CCC1OC[C@H](COC(=O)O[C@@H](C(=O)O[C@H]2C[C@@]3(O)[C@@H](OC(=O)c4ccccc4)[C@@H]4[C@]5(OC(C)=O)CO[C@@H]5C[C@H](O)[C@@]4(C)C(=O)[C@H](OC(C)=O)C(=C2C)C3(C)C)[C@@H](NC(=O)c2ccccc2)c2ccccc2)O1 (some centres undefined),GI50,[1],0.114 µM
same,TGI,[1],> 33.3 µM
same,GI50,[2],0.298 µM
same,TGI,[2],4.68 µM
same,GI50,[3],> 33.3 µM
same,TGI,[3],> 33.3 µM
same,GI50,[4],0.992 µM
same,TGI,[4],> 33.3 µM
same,GI50,[5],0.494 µM
same,TGI,[5],> 8.14 µM
same,GI50,[6],0.516 µM
same,TGI,[6],> 33.3 µM
same,GI50,[7],0.172 µM
same,TGI,[7],> 10.9 µM
same,GI50,[8],0.443 µM
same,TGI,[8],> 33.3 µM
same,GI50,[9],0.888 µM
same,TGI,[9],> 33.3 µM
same,GI50,[10],> 33.3 µM
same,TGI,[10],> 33.3 µM
same,GI50,[11],1.27 µM
same,TGI,[11],> 33.3 µM
same,GI50,[12],0.0727 µM
same,TGI,[12],0.648 µM
same,GI50,[13],0.182 µM
same,TGI,[13],> 33.3 µM
same,GI50,[14],> 33.3 µM
same,TGI,[14],> 33.3 µM
same,GI50,[15],0.648 µM
same,TGI,[15],> 33.3 µM
same,GI50,[16],1.16 µM
same,TGI,[16],> 33.3 µM
same,GI50,[17],1.56 µM
same,TGI,[17],> 33.3 µM
same,GI50,[18],0.123 µM
same,TGI,[18],> 33.3 µM
same,GI50,[19],0.145 µM
same,TGI,[19],> 33.3 µM
same,GI50,[20],0.228 µM
same,TGI,[20],> 33.3 µM
same,GI50,[21],0.297 µM
same,TGI,[21],> 17.3 µM
same,GI50,[22],1.34 µM
same,TGI,[22],> 33.3 µM
same,GI50,[23],1.14 µM
same,TGI,[23],> 33.3 µM
same,GI50,[24],> 33.3 µM
same,TGI,[24],> 33.3 µM
same,GI50,[25],0.907 µM
same,TGI,[25],> 33.3 µM
same,GI50,[26],1.38 µM
same,TGI,[26],> 33.3 µM
same,GI50,[27],1.4 µM
same,TGI,[27],> 33.3 µM
same,GI50,[28],0.0921 µM
same,TGI,[28],> 33.3 µM
same,GI50,[29],0.202 µM
same,TGI,[29],> 33.3 µM
same,GI50,[30],0.386 µM
same,TGI,[30],3.59 µM
same,GI50,[31],> 8.84 µM
same,TGI,[31],> 33.3 µM
same,GI50,[32],0.569 µM
same,TGI,[32],> 33.3 µM
same,GI50,[33],> 33.3 µM
same,TGI,[33],> 33.3 µM
same,GI50,[34],1.01 µM
same,TGI,[34],> 33.3 µM
same,GI50,[35],0.114 µM
same,TGI,[35],> 33.3 µM
same,GI50,[36],1.25 µM
same,TGI,[36],> 15.3 µM
same,GI50,[37],0.255 µM
same,TGI,[37],> 33.3 µM
same,GI50,[38],1.01 µM
same,TGI,[38],> 27.5 µM
same,GI50,[39],0.17 µM
same,TGI,[39],> 33.3 µM
same,GI50,[40],0.424 µM
same,TGI,[40],> 33.3 µM
same,GI50,[41],0.295 µM
same,TGI,[41],> 33.3 µM
same,GI50,[42],0.561 µM
same,TGI,[42],> 33.3 µM
same,GI50,[43],0.632 µM
same,TGI,[43],> 33.3 µM
same,GI50,[44],11.7 µM
same,TGI,[44],> 33.3 µM
same,GI50,[45],> 18.5 µM
same,TGI,[45],> 33.3 µM
same,GI50,[46],> 33.3 µM
same,TGI,[46],> 33.3 µM
same,GI50,[47],0.394 µM
same,TGI,[47],> 33.3 µM
same,GI50,[48],1.37 µM
same,TGI,[48],> 33.3 µM
same,GI50,[49],0.261 µM
same,TGI,[49],> 33.3 µM
same,GI50,[50],0.044 µM
same,TGI,[50],0.109 µM
same,GI50,[51],1.47 µM
same,TGI,[51],> 33.3 µM
same,GI50,[52],0.196 µM
same,TGI,[52],> 33.3 µM
same,GI50,[53],8.21 µM
same,TGI,[53],> 33.3 µM
same,GI50,[54],0.554 µM
same,TGI,[54],> 33.3 µM
same,GI50,[55],0.52 µM
same,TGI,[55],> 33.3 µM
same,GI50,[56],0.199 µM
same,TGI,[56],> 33.3 µM
same,GI50,[57],> 21.5 µM
same,TGI,[57],> 33.3 µM
